Laboratory results from patent US10760110B2, “Antibiotic testing and screening system” (priority 2017, dated 2020).
Converted amounts (≈) assume the structure as drawn. Like-named read-outs stand apart in the source and are kept apart here.

Key:
[1] = test system: K. pneumoniae NVT1001 and its ΔompK35/36 and/or ΔramR mutants; assay: Etest MIC, OmpK35/36 loss and AcrAB-TolC overexpression (ΔramR) strains (Table 6); format: cell-based, Klebsiella pneumoniae; conditions: Klebsiella pneumoniae
Outline: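 Ceftazidime and cefotaxime were tested by CLSI broth microdilution on the blaOXA-48 pACYC177 transformant of NVT1001, using CLSI 2017 breakpoints. Parent, porin-deleted (ΔompK35/36) and ΔramR strains were tested by Etest, with values between two-fold dilutions rounded up.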

[2] = test system: K. pneumoniae NVT1001 and ΔramR strains with tet resistance gene plasmids; assay: Etest MIC of tetracyclines, AcrAB-TolC overexpression (ΔramR) and/or tet resistance gene (Table 14); format: cell-based, Klebsiella pneumoniae; conditions: Klebsiella pneumoniae
Procedure: DNA fragments of the resistance genes along with their flanking regions were amplified from clinical plasmids via PCR with specific primer pairs. The resulting PCR fragments were digested and then cloned into the plasmid pACYC177 or pACYC184. The resulting plasmids were then transformed into K. pneumoniae strain NVT1001 via electroporation. The recombinant bacteria were plated onto LB agar plates containing kanamycin (50 mg/L) or chloramphenicol (50 mg/L), and the presence of the cloned gene was confirmed via PCR and DNA sequencing.
(§1) The MICs of antibiotics were determined using the Etest (Biodisk AB, Sweden) according to the manufacturer's instructions. The MICs from the Etest, which fall between standard two-fold dilutions, were rounded up to the next highest two-fold value. The MICs of ceftazidime and cefotaxime against K. pneumoniae NVT1001 harbouring the pACYC177 plasmid with blaOXA-48 were further determined using a broth microdilution test according to the recommendations of the CLSI,^25 and the results were interpreted according to the breakpoints established by the CLSI in 2017.^25 Meanwhile, due to the lack of CLSI breakpoints in 2016 and 2017, the results for cephalothin were interpreted according to the breakpoints established by the CLSI in 2015,^26 and the results for moxifloxacin were interpreted according to the breakpoints established by the EUCAST in 2017.^27

[3] = test system: K. pneumoniae NVT1001 ΔramRΔompK35/36 mutant and its revertants; assay: Etest MIC, ΔramRΔompK35/36 mutant and its revertants (Table 7); format: cell-based; conditions: Klebsiella pneumoniae
From the text: The allelic-exchange method was used to restore the wild-type gene in the K. pneumoniae NVT1001 mutants with constructed chromosome-mediated resistance mechanisms, as described by Tsai et al.^19 Briefly, a DNA fragment of the entire wild-type gene sequence along with flanking regions was amplified from K. pneumoniae NVT1001 using PCR with specific primers. The resulting PCR fragment was digested and then cloned into pUT-KB. For homologous recombination, this plasmid was transformed into E. coli S17-1 λpir^23 via electroporation and mobilized into the K. pneumoniae NVT1001 mutant via conjugation. […] After incubation in 20 mL BHI broth for 6 hours at 37° C. in the absence of kanamycin, the fully grown cultures were spread onto LB agar plates supplemented with 10% sucrose. After the double crossover occurred, the sucrose-resistant and kanamycin-susceptible colonies were selected, and the restoration of the wild-type gene was confirmed via DNA sequencing.
as §1

[4] = test system: A. baumannii KW1 strains with tet resistance gene plasmids; assay: Etest MIC of tetracyclines, tet resistance gene (Table 20); format: cell-based, Acinetobacter baumannii; conditions: for MIC: Acinetobacter baumannii; for increase in the MIC: production of Tet(A), Tet(B) or Tet(C)
Procedure: DNA fragments of the resistance genes along with their flanking regions were amplified from clinical plasmids via PCR with specific primer pairs. The resulting PCR fragments were digested and then cloned into the plasmid pYMAb5 or pYMAb5Tc. The resulting plasmids were then transformed into A. baumannii KW1 via electroporation.
as §1

[5] = ΔramRΔ35/36, ΔramRΔompK35/36 mutant
[6] = NVT1001, Tet(A) on pACYC177, read-out: MIC
[7] = NVT1001, Tet(B) on pACYC177, read-out: MIC
[8] = NVT1001, Tet(C) on pACYC177, read-out: MIC
[9] = NVT1001, Tet(D) on pACYC177, read-out: MIC
[10] = NVT1001, Tet(M) on pACYC177, read-out: MIC
[11] = NVT1001, no supplemental plasmid, read-out: MIC
[12] = ΔramRΔompK35/36::ompK35/36 revertant
[13] = ΔramRΔompK35/36::ompK35 revertant
[14] = ΔramRΔompK35/36::ompK36 revertant
[15] = ΔramRΔompK35/36::ramR revertant
[16] = ΔramRΔompK35/36::ramR::ompK35/36 revertant
[17] = ΔramRΔompK35/36::ramR::ompK35 revertant
[18] = ΔramRΔompK35/36::ramR::ompK36 revertant

| SMILES | MIC ([1]; WT, NVT1001, read-out: MIC) [µg/mL] | MIC ([1]; Δ35, ΔompK35 mutant) [µg/mL] | MIC ([1]; Δ35/36, ΔompK35/36 mutant) [µg/mL] | MIC ([1]; Δ36, ΔompK36 mutant) [µg/mL] | MIC ([1]; ΔramR mutant) [µg/mL] | MIC ([1]; ΔramRΔ35, ΔramRΔompK35 mutant) [µg/mL] | MIC [1, 5] [µg/mL] | MIC ([1]; ΔramRΔ36, ΔramRΔompK36 mutant) [µg/mL] | MIC [2, 6] [µg/mL] | MIC [2, 7] [µg/mL] | MIC [2, 8] [µg/mL] | MIC [2, 9] [µg/mL] | MIC [2, 10] [µg/mL] | MIC [2, 11] [µg/mL] | MIC ([2]; ΔramR, Tet(A) on pACYC177) [µg/mL] | MIC ([2]; ΔramR, Tet(B) on pACYC177) [µg/mL] | MIC ([2]; ΔramR, Tet(C) on pACYC177) [µg/mL] | MIC ([2]; ΔramR, Tet(D) on pACYC177) [µg/mL] | MIC ([2]; ΔramR, Tet(M) on pACYC177) [µg/mL] | MIC ([2]; ΔramR, no supplemental plasmid) [µg/mL] | other results |
| --- | --- | --- | --- | --- | --- | --- | --- | --- | --- | --- | --- | --- | --- | --- | --- | --- | --- | --- | --- | --- | --- |
| CN(C)c1ccc(O)c2c1C[C@H]1C[C@H]3[C@H](N(C)C)C(O)=C(C(N)=O)C(=O)[C@@]3(O)C(O)=C1C2=O [Minocycline] | 4 (≈ 8.74 µM) | 4 (≈ 8.74 µM) | 4 (≈ 8.74 µM) | 4 (≈ 8.74 µM) | 64 (≈ 140 µM) | 128 (≈ 280 µM) | 128 (≈ 280 µM) | 128 (≈ 280 µM) | 32 | 32 | 4 | 128 | 32 | 4 | > 256 | > 256 | 64 | > 256 | > 256 | 64 | MIC [3, 12]: 128 µg/mL; MIC [3, 13]: 128 µg/mL; MIC [3, 14]: 128 µg/mL; MIC [3, 15]: 4 µg/mL; MIC [3, 16]: 4 µg/mL; MIC [3, 17]: 4 µg/mL; MIC [3, 18]: 4 µg/mL; MIC ([3]; ΔramRΔompK35/36 mutant): 128 µg/mL; MIC ([4]; KW1, Tet(A) on pYMAb5): 1.5 µg/mL; MIC ([4]; KW1, Tet(B) on pYMAb5): 1.5 µg/mL; MIC ([4]; KW1, Tet(M) on pYMAb5): 2 µg/mL; MIC ([4]; KW1, no supplemental plasmid): 0.38 µg/mL; MIC ([4]; KW1 with shuttle vector pYMAb5): 0.25 µg/mL; increase in the MIC [4]: 4 fold |
| C[C@H]1c2cccc(O)c2C(=O)C2=C(O)[C@]3(O)C(=O)C(C(N)=O)=C(O)[C@@H](N(C)C)[C@@H]3[C@@H](O)[C@@H]21 [Doxycycline, doxycycline] | 4 (≈ 9 µM) | 4 (≈ 9 µM) | 4 (≈ 9 µM) | 4 (≈ 9 µM) | 64 (≈ 144 µM) | 64 (≈ 144 µM) | 128 (≈ 288 µM) | 64 (≈ 144 µM) | > 256 | > 256 | 16 | 128 | 32 | 4 | > 256 | > 256 | 128 | 256 | 128 | 64 | MIC [3, 12]: 64 µg/mL; MIC [3, 13]: 64 µg/mL; MIC [3, 14]: 64 µg/mL; MIC [3, 15]: 4 µg/mL; MIC [3, 16]: 4 µg/mL; MIC [3, 17]: 4 µg/mL; MIC [3, 18]: 4 µg/mL; MIC ([3]; ΔramRΔompK35/36 mutant): 128 µg/mL; MIC ([4]; KW1, Tet(A) on pYMAb5): 12 µg/mL; MIC ([4]; KW1, Tet(B) on pYMAb5): 32 µg/mL; MIC ([4]; KW1, Tet(M) on pYMAb5): 192 µg/mL; MIC ([4]; KW1, no supplemental plasmid): 0.75 µg/mL; MIC ([4]; KW1 with shuttle vector pYMAb5): 0.75 µg/mL; increase in the MIC [4]: 4 fold |
